Measured values as given in US7981899B2, “Use of compatible solutes for inhibiting the release of ceramides” (Merck Patent GmbH, priority 2002, dated 2011).

Columns and labels:
dermal human fibroblasts = test: UVA radiation-induced formation of mitochondrial DNA mutations (common deletion), PCR (Example B4); format: cell-based; details: 1 mM pretreatment, 8 J/cm^2 UVA three times daily, four successive days, three weeks, FIG. 4
From the text: Dermal human fibroblasts are cultivated in Eagle minimal medium. The cells are irradiated three times daily with 8 J/cm^2 of UVA on four successive days over a total of three weeks. The mt-DNA is then extracted and amplified using PCR. Further details on the method are described in detail in M. Berneburg, S. Grether-Beck, V. Kürten, Th. Ruzicka, K. Briviba, H. Sies, J. Krutmann, J Biol Chem 274 (1999) 15345-15349 and M. Berneburg, N. Gattermann, H. Stege, M. Grewe, K. Vogelsang, Th. Ruzicka, J. Krutmann, Photobiol. 66 (1997) 271-275.

[1] = test system: normal human keratinocytes; test: Release of second messenger in UV-A-irradiated keratinocytes (Example A); format: cell-based; details: 2 mM for 24 hours
Protocol: Normal human keratinocytes which are left untreated or have been treated with a 2 mM solution of RONACARE™ ectoin for 24 hours are subjected to a UV-A radiation dose of 30 J/cm^2 (wavelength of the UV-A radiation: 340-400 nm). […] The cells are harvested 1 hour after irradiation (=maximum UV-A-induced second messenger formation). The release of the second messenger was determined.

[2] = test system: transcription factor AP-2; test: Inhibition of UV-A-induced AP-2 activation, gel electrophoresis mobility shift assay (Example B2); format: cell-based; details: human keratinocytes, 1 mM pre-incubation for 24 hours, UV-A 30 J/cm^2, FIG. 2
Protocol: The determination of the activation of transcription factor AP-2 is carried out with the aid of gel electrophoresis mobility shift assays (GEMSA). To this end, a nucleus extract (according to J.D. Dignam, P.L.Martin, B.S. Skastry, R.G.G. Roeder, Methods Enzymol 101 (1983) 582-598) of human keratinocytes which had previously been irradiated for 1 hour with 30 J/cm^2 of UV-A light is incubated in comparison with an unirradiated control with the consensus oligonucleotide sequence of ICAM-1 promoter (in accordance with G.G. Stade, G. Messer, G. Riethmüller, J.P. Johannson; Immunobiology 182 (1990) 79-87). The amount of bound AP-2 is subsequently determined by means of GEMSA. (A) Un-pretreated, unirradiated control, (B) pre-incubated with 1 mM RONACARE™ ectoin for 24 hours and irradiated with a single dose of 30 J/cm^2, or (C) pre-incubated only with the cell medium for 24 hours and irradiated with 30 J/cm^2. The UVA irradiation results in activation of transcription factor AP-2 after UVA exposure.

ICAM-1 = test: Inhibition of UV-A-induced ICAM-1 expression, differential RT-PCR (Example B3); format: cell-based, human; details: keratinocytes, 1 mM pre-incubation for 24 hours, UVA 30 J/cm^2, relative to β-actin, all points in time, FIG. 3
Protocol: The expression of ICAM-1 is measured using differential reverse transcriptase PCR (RT -PCR) and the kit from Applied Biosystem. In order to take into account the normal variations in gene expression of skin cells, the ICAM-1 expression is compared with the housekeeping gene β-actin formed constitutively. Semiquantitative analysis of the RT-PCR is carried out by ion exchange chromatography using a UV spectrophotometer (A260). (A) Un-pretreated, irradiated control, (B) pre-incubated with 1 mM RONACARE™ ectoin for 24 hours and irradiated with a single dose of 30 J/cm^2, or (C) pre-incubated with 1 mM ectoin for 24 hours, unirradiated. The UVA radiation induces an increase in ICAM-1 expression.

[3] = test system: normal human keratinocytes; test: Inhibition of UV-A-induced ceramide formation, quantitative HPTLC (Example B1); format: cell-based; details: 1 mM pre-incubation for 24 hours, UVA 30 J/cm^2, 1 hour after irradiation, FIG. 1
Protocol: The concentration of a second messenger (ceramide) in UVA-irradiated normal human keratinocytes which have either been pretreated with 1 mM RONACARE™ ectoin or are untreated compared with unirradiated keratinocytes is measured using a quantitative HPTLC method. (A) Un-pretreated control, (B) pre-incubated only with the cell medium for 24 hours, (C) pre-incubated with 1 mM RONACARE™ ectoin for 24 hours. The cells pre-treated in this way are irradiated with a single dose of UVA of 30 J/cm^2 (radiation source: Sellamed 24000). The cells are “harvested” 1 hour after irradiation, a lipid extraction is carried out, and the concentration of the second messenger is determined by quantitative HPTLC. Methodological details are given in Grether-Beck Set al., EMBO J 19: 5793-5800, 2000. […] The data are shown as histograms of ectoin (mM) against ceramide (ng).

CC1=N[C@H](C(=O)O)CCN1 [RONACARE™ ectoin, (S)-1,4,5,6-tetrahydro-2-methyl-4-pyrimidinecarboxylic acid]
formation of mt-DNA mutations (dermal human fibroblasts): prevented the formation of mt-DNA mutations
UV-A-induced release of the second messenger ([1]; UV-A 30 J/cm^2): inhibits the UV-A-induced release of the second messenger
Increase in second messenger ([1]; UV-A 30 J/cm^2 (340-400 nm), harvested 1 hour after irradiation): 5.65 ng
activation of transcription factor AP-2 after UVA exposure [2]: suppressed virtually completely
ICAM-1 induction induced by UVA radiation (ICAM-1): virtually completely eliminate ICAM-1 induction
ceramide formation induced by UVA radiation [3]: completely suppresses ceramide formation
